Data on six compounds can be found in US20250270707A1, “NON-TRIAZOLE IMIDAZOLINE AND AMIDE COMPOUNDS AND METHODS FOR INHIBITING CORROSION IN INDUSTRIAL WATER TREATMENT” (CHEMTREAT, INC., priority 2023, published 2025).

Data set [1] in a line: Corrosion rate by LPR sweep, copper coupons in synthetic water, 50° C., 1 ppm free chlorine after 0.5 hrs (Examples 1 and 2). The settings on record: for corrosion inhibition properties over the entire 18 hour period (in words) / corrosion resistance when free chlorine was added (in words): Example 2. As for the experimental part: (§1) One liter samples of synthetic water were each dosed with the compositions in Table 1.
(§2) The apparatus used for the corrosion testing was a Gamry Multiport Corrosion Cell and Gamry Reference 600+potentiostat with multiplexor. Copper coupons (CDA110) were added to the sample cells containing neutral water (pH 7.5), and the cells were dosed with 50 ppm of scale inhibitor (co-polymer and 2-phosphonobutane-1,2,4-yricarboxylic acid) and heated to 50° C. and maintained at this temperature throughout the testing. The cells were continuously stirred at a speed of 350 rpm. A cylindrical working electrode was submerged into the test solutions, and an LPR sweep (linear polarization resistance) was performed every hour for 18 hours. After the 0.5 hrs mark, 1 ppm of free chlorine was dosed into the corrosion cell.
(§3) One liter samples of the synthetic water described above with respect to Example 1 were each dosed with the compositions in Table 5 and processed under conditions similar to Example 1.

Data set [2] in a line: Cl2 demand in the corrosion cell test (Examples 1 and 2). The data set is classed as physicochemical. As for the experimental part: as §1, §2, §3

For the compound Disodium Cocoamphodiacetate [DCADAA], the “CR Average (10-18 hrs)” value in data set [1] (2 ppm) is 0.036 mpy. In data set [1] (2 ppm), the “CR Peak” value was 0.180 mpy. Further, the corrosion rate in data set [1] (2 ppm, 0 hrs) was found to be 0.0198 mpy; in data set [1] (2 ppm, 1 hrs), 0.1804 mpy; in data set [1] (2 ppm, 2 hrs) it was 0.1576 mpy; in data set [1] (2 ppm, 3 hrs) it was 0.1608 mpy; in data set [1] (2 ppm, 4 hrs), 0.1140 mpy; in data set [1] (2 ppm, 5 hrs), 0.1360 mpy. Further, the corrosion rate came out at 0.0910 mpy in data set [1] (2 ppm, 6 hrs); 0.0780 mpy in data set [1] (2 ppm, 7 hrs); 0.0629 mpy in data set [1] (2 ppm, 8 hrs); 0.0545 mpy in data set [1] (2 ppm, 9 hrs); 0.0516 mpy in data set [1] (2 ppm, 10 hrs); 0.0459 mpy in data set [1] (2 ppm, 11 hrs). Also, the corrosion rate in data set [1] (2 ppm, 12 hrs) is given as 0.0419 mpy; in data set [1] (2 ppm, 13 hrs) it was 0.0375 mpy; in data set [1] (2 ppm, 14 hrs), 0.0349 mpy; in data set [1] (2 ppm, 15 hrs), 0.0316 mpy; in data set [1] (2 ppm, 16 hrs), 0.0290 mpy; in data set [1] (2 ppm, 17 hrs) it was 0.0246 mpy. In data set [1] (2 ppm, 18 hrs), the corrosion rate is given as 0.0252 mpy. Further, the “corrosion inhibition properties over the entire 18 hour period (in words)” value in data set [1] (2 ppm) is recorded as “good corrosion inhibition properties”. The “Cl2 Demand” value in data set [2] (2 ppm) is 0.6 mg/L.

With `CCCCCCCC(=O)NCCN(CCOCC(=O)[O-])CC(=O)[O-].[Na+].[Na+]` [DCyADAA, Disodium Capryloamphodiacetate], the “CR Average (10-18 hrs)” value in data set [1] (2 ppm) is recorded as 0.271 mpy. Further, the “CR Peak” value in data set [1] (2 ppm) is reported as 2.854 mpy. Besides, the corrosion rate in data set [1] (2 ppm, 0 hrs) is 0.0230 mpy; in data set [1] (2 ppm, 1 hrs) it was 2.8540 mpy; in data set [1] (2 ppm, 2 hrs), 1.5850 mpy; in data set [1] (2 ppm, 3 hrs), 1.3860 mpy; in data set [1] (2 ppm, 4 hrs), 0.5261 mpy; in data set [1] (2 ppm, 5 hrs), 0.6207 mpy. Moreover, the corrosion rate is on record as 0.5852 mpy in data set [1] (2 ppm, 6 hrs); 0.4766 mpy in data set [1] (2 ppm, 7 hrs); 0.4185 mpy in data set [1] (2 ppm, 8 hrs); 0.3747 mpy in data set [1] (2 ppm, 9 hrs); 0.3416 mpy in data set [1] (2 ppm, 10 hrs); 0.3181 mpy in data set [1] (2 ppm, 11 hrs). Further, the corrosion rate in data set [1] (2 ppm, 12 hrs) is recorded as 0.2953 mpy; in data set [1] (2 ppm, 13 hrs), 0.2800 mpy; in data set [1] (2 ppm, 14 hrs), 0.2681 mpy; in data set [1] (2 ppm, 15 hrs) it was 0.2352 mpy; in data set [1] (2 ppm, 16 hrs), 0.2411 mpy; in data set [1] (2 ppm, 17 hrs) it was 0.2394 mpy. In addition, in data set [1] (2 ppm, 18 hrs), the corrosion rate is given as 0.2217 mpy. Also, the “corrosion inhibition properties over the entire 18 hour period (in words)” value in data set [1] (2 ppm) is “inferior corrosion inhibition properties”. The “corrosion resistance when free chlorine was added (in words)” value in data set [1] (2 ppm) is recorded as “substantial deterioration in corrosion resistance”. In data set [2] (2 ppm), the “Cl2 Demand” value is recorded as 1.1 mg/L.

On to “Disodium Coco Imidazoline Dicarboxylate [DCIMDCC]”, for which the “CR Average (10-18 hrs)” value in data set [1] (2 ppm) came out at 0.025 mpy. Moreover, the “CR Peak” value in data set [1] (2 ppm) worked out at 0.267 mpy. Besides, the corrosion rate in data set [1] (2 ppm, 0 hrs) is 0.0395 mpy; in data set [1] (2 ppm, 1 hrs), 0.2665 mpy; in data set [1] (2 ppm, 2 hrs), 0.1537 mpy; in data set [1] (2 ppm, 3 hrs), 0.0908 mpy; in data set [1] (2 ppm, 4 hrs) it was 0.0856 mpy; in data set [1] (2 ppm, 5 hrs) it was 0.0744 mpy. Further, the corrosion rate in data set [1] (2 ppm, 6 hrs) is 0.0600 mpy; in data set [1] (2 ppm, 7 hrs), 0.0499 mpy; in data set [1] (2 ppm, 8 hrs) it was 0.0409 mpy; in data set [1] (2 ppm, 9 hrs) it was 0.0375 mpy; in data set [1] (2 ppm, 10 hrs) it was 0.0339 mpy; in data set [1] (2 ppm, 11 hrs), 0.0313 mpy. Besides, the corrosion rate in data set [1] (2 ppm, 12 hrs) is on record as 0.0283 mpy; in data set [1] (2 ppm, 13 hrs), 0.0266 mpy; in data set [1] (2 ppm, 14 hrs), 0.0243 mpy; in data set [1] (2 ppm, 15 hrs), 0.0224 mpy; in data set [1] (2 ppm, 16 hrs) it was 0.0209 mpy; in data set [1] (2 ppm, 17 hrs) it was 0.0196 mpy. Moreover, the corrosion rate in data set [1] (2 ppm, 18 hrs) was 0.0188 mpy. Further, the “Cl2 Demand” value in data set [2] (2 ppm) was found to be 0.9 mg/L.

Regarding `CCCCCCCC(=O)NCCN(CCOCCC(=O)[O-])CCC(=O)[O-].[Na+].[Na+]` [DCADPP, Disodium Capryloamphodipropionate], the “CR Average (10-18 hrs)” value in data set [1] (2 ppm) is on record as 0.304 mpy. Moreover, the “CR Peak” value in data set [1] (2 ppm) is 2.169 mpy. Also, the corrosion rate is 0.0293 mpy in data set [1] (2 ppm, 0 hrs); 2.1690 mpy in data set [1] (2 ppm, 1 hrs); 1.4770 mpy in data set [1] (2 ppm, 2 hrs); 1.3090 mpy in data set [1] (2 ppm, 3 hrs); 0.6705 mpy in data set [1] (2 ppm, 4 hrs); 0.6007 mpy in data set [1] (2 ppm, 5 hrs). Besides, the corrosion rate is reported as 0.6353 mpy in data set [1] (2 ppm, 6 hrs); 0.5403 mpy in data set [1] (2 ppm, 7 hrs); 0.4352 mpy in data set [1] (2 ppm, 8 hrs); 0.3962 mpy in data set [1] (2 ppm, 9 hrs); 0.3671 mpy in data set [1] (2 ppm, 10 hrs); 0.3426 mpy in data set [1] (2 ppm, 11 hrs). Moreover, the corrosion rate turned out to be 0.3293 mpy in data set [1] (2 ppm, 12 hrs); 0.3130 mpy in data set [1] (2 ppm, 13 hrs); 0.2994 mpy in data set [1] (2 ppm, 14 hrs); 0.2826 mpy in data set [1] (2 ppm, 15 hrs); 0.2749 mpy in data set [1] (2 ppm, 16 hrs); 0.2691 mpy in data set [1] (2 ppm, 17 hrs). Also, in data set [1] (2 ppm, 18 hrs), the corrosion rate was 0.2604 mpy. The “corrosion inhibition properties over the entire 18 hour period (in words)” value in data set [1] (2 ppm) is “inferior corrosion inhibition properties”. For the same compound, the “corrosion resistance when free chlorine was added (in words)” value in data set [1] (2 ppm) is listed as “substantial deterioration in corrosion resistance”. In data set [2] (2 ppm), the “Cl2 Demand” value was found to be 1.0 mg/L.

Turning to Sodium Cocoamphoacetate [SCAA], the “CR Average (10-18 hrs)” value in data set [1] (2 ppm) is listed as 0.017 mpy. For the same compound, in data set [1] (2 ppm), the “CR Peak” value came out at 0.197 mpy. In addition, the corrosion rate in data set [1] (2 ppm, 0 hrs) is recorded as 0.0217 mpy; in data set [1] (2 ppm, 1 hrs) it was 0.1969 mpy; in data set [1] (2 ppm, 2 hrs), 0.0988 mpy; in data set [1] (2 ppm, 3 hrs), 0.0761 mpy; in data set [1] (2 ppm, 4 hrs) it was 0.0602 mpy; in data set [1] (2 ppm, 5 hrs) it was 0.0506 mpy. The corrosion rate stood at 0.0473 mpy in data set [1] (2 ppm, 6 hrs); 0.0347 mpy in data set [1] (2 ppm, 7 hrs); 0.0293 mpy in data set [1] (2 ppm, 8 hrs); 0.0257 mpy in data set [1] (2 ppm, 9 hrs); 0.0231 mpy in data set [1] (2 ppm, 10 hrs); 0.0212 mpy in data set [1] (2 ppm, 11 hrs). Moreover, the corrosion rate stood at 0.0191 mpy in data set [1] (2 ppm, 12 hrs); 0.0177 mpy in data set [1] (2 ppm, 13 hrs); 0.0166 mpy in data set [1] (2 ppm, 14 hrs); 0.0156 mpy in data set [1] (2 ppm, 15 hrs); 0.0142 mpy in data set [1] (2 ppm, 16 hrs); 0.0139 mpy in data set [1] (2 ppm, 17 hrs). Moreover, in data set [1] (2 ppm, 18 hrs), the corrosion rate is listed as 0.0128 mpy. The “corrosion inhibition properties over the entire 18 hour period (in words)” value in data set [1] (2 ppm) was “good corrosion inhibition properties”. Also, the “Cl2 Demand” value in data set [2] (2 ppm) is reported as 1.0 mg/L.

For the compound `CCCCCCCCCCCCCCCCCCN(C(=O)CC(C(=O)[O-])S(=O)(=O)[O-])C(CC(=O)[O-])C(=O)[O-].[Na+].[Na+].[Na+].[Na+]` (stereo not drawn) [TDSS, Tetrasodium Dicarboxyethyl Stearyl Sulfosuccinamate, reference compound], the “CR Average (10-18 hrs)” value in data set [1] (7 ppm) was 0.141 mpy. In addition, in data set [1] (7 ppm), the “CR Peak” value amounted to 0.243 mpy. Further, the corrosion rate came to 0.0149 mpy in data set [1] (7 ppm, 0 hrs); 0.1875 mpy in data set [1] (7 ppm, 1 hrs); 0.2432 mpy in data set [1] (7 ppm, 2 hrs); 0.2313 mpy in data set [1] (7 ppm, 3 hrs); 0.1839 mpy in data set [1] (7 ppm, 4 hrs); 0.1611 mpy in data set [1] (7 ppm, 5 hrs). Moreover, the corrosion rate in data set [1] (7 ppm, 6 hrs) is 0.1349 mpy; in data set [1] (7 ppm, 7 hrs) it was 0.1387 mpy; in data set [1] (7 ppm, 8 hrs), 0.1304 mpy; in data set [1] (7 ppm, 9 hrs), 0.1291 mpy; in data set [1] (7 ppm, 10 hrs) it was 0.1381 mpy; in data set [1] (7 ppm, 11 hrs), 0.1431 mpy. Also, the corrosion rate in data set [1] (7 ppm, 12 hrs) came out at 0.1363 mpy; in data set [1] (7 ppm, 13 hrs) it was 0.1485 mpy; in data set [1] (7 ppm, 14 hrs), 0.1371 mpy; in data set [1] (7 ppm, 15 hrs), 0.1428 mpy; in data set [1] (7 ppm, 16 hrs), 0.1422 mpy; in data set [1] (7 ppm, 17 hrs), 0.1375 mpy. The compound further displayed a corrosion rate in data set [1] (7 ppm, 18 hrs) of 0.1422 mpy. Besides, in data set [2] (7 ppm), the “Cl2 Demand” value was 0.8 mg/L.
